Measurements from ChEMBL document CHEMBL3244164, “Synthesis and analgesic activity of 1,3-dihydro-3-(substituted phenyl)imidazo[4,5-b]pyridin-2-ones and 3-(substituted phenyl)-1,2,3-triazolo[4,5-b]pyridines” (J Med Chem, 1978).
The source made the active and inactive calls.

Legend:
Rattus norvegicus [1] = experiment: Analgesic activity in Sprague-Dawley rat hyperesthesia model normal foot assessed as mean pain reaction threshold at 10 mg/kg, po after 1 hr; type: functional
Rattus norvegicus [2] = experiment: Analgesic activity in naloxone treated Sprague-Dawley rat hyperesthesia model normal foot assessed as mean pain reaction threshold at 20 mg/kg, po after 1 hr; type: functional
Rattus norvegicus [3] = experiment: Analgesic activity in naloxone treated Sprague-Dawley rat hyperesthesia model inflamed foot assessed as mean pain reaction threshold at 20 mg/kg, po after 1 hr; type: functional
Rattus norvegicus [4] = experiment: Analgesic activity in naloxone treated Sprague-Dawley rat hyperesthesia model normal foot assessed as mean pain reaction threshold at 5 mg/kg, po after 1 hr; type: functional
Rattus norvegicus [5] = experiment: Analgesic activity in Sprague-Dawley rat assessed as increase in mean reaction time at 10 mg/kg, po after 4 hrs relative to control; type: functional
Rattus norvegicus [6] = experiment: Analgesic activity in Sprague-Dawley rat hyperesthesia model inflamed foot assessed as mean pain reaction threshold at 10 mg/kg, po after 1 hr; type: functional
Rattus norvegicus [7] = experiment: Analgesic activity in Sprague-Dawley rat brewer's yeast treated foot assessed as response threshold at 8 mg/kg, po; type: functional
Rattus norvegicus [8] = experiment: Analgesic activity in naloxone treated Sprague-Dawley rat hyperesthesia model inflamed foot assessed as mean pain reaction threshold at 5 mg/kg, po after 1 hr; type: functional
Rattus norvegicus [9] = experiment: Analgesic activity in Sprague-Dawley rat assessed as increase in mean reaction time at 20 mg/kg, po after 4 hrs relative to control; type: functional
Rattus norvegicus [10] = experiment: Analgesic activity in Sprague-Dawley rat hyperesthesia model inflamed foot assessed as mean pain reaction threshold at 20 mg/kg, po after 1 hr; type: functional
Rattus norvegicus [11] = experiment: Analgesic activity in Sprague-Dawley rat assessed as increase in mean reaction time at 5 mg/kg, po after 4 hrs relative to control; type: functional
Rattus norvegicus [12] = experiment: Analgesic activity in Sprague-Dawley rat assessed as increase in mean reaction time at 5 mg/kg, po after 2 hrs relative to control; type: functional
Rattus norvegicus [13] = experiment: Antiarthritic activity in Lewis rat assessed as inhibition of adjuvant-induced paw swelling at 50 mg/kg, po qd for 13 days measured on day 14; type: functional
Rattus norvegicus [14] = experiment: Analgesic activity in Sprague-Dawley rat assessed as increase in mean reaction time at 20 mg/kg, po after 3 hrs relative to control; type: functional
Rattus norvegicus [15] = experiment: Analgesic activity in naloxone treated Sprague-Dawley rat hyperesthesia model normal foot assessed as mean pain reaction threshold at 10 mg/kg, po after 1 hr; type: functional
Rattus norvegicus [16] = experiment: Analgesic activity in Sprague-Dawley rat assessed as increase in mean reaction time at 10 mg/kg, po after 2 hrs relative to control; type: functional
Rattus norvegicus [17] = experiment: Analgesic activity in naloxone treated Sprague-Dawley rat hyperesthesia model inflamed foot assessed as mean pain reaction threshold at 10 mg/kg, po after 1 hr; type: functional
Rattus norvegicus [18] = experiment: Analgesic activity in Sprague-Dawley rat assessed as increase in mean reaction time at 5 mg/kg, po after 5 hrs relative to control; type: functional
Rattus norvegicus [19] = experiment: Analgesic activity in Sprague-Dawley rat hyperesthesia model inflamed foot assessed as mean pain reaction threshold at 5 mg/kg, po after 1 hr; type: functional
Rattus norvegicus [20] = experiment: Analgesic activity in Sprague-Dawley rat assessed as increase in mean reaction time at 20 mg/kg, po after 1 hr relative to control; type: functional
Rattus norvegicus [21] = experiment: Analgesic activity in Sprague-Dawley rat assessed as increase in mean reaction time at 10 mg/kg, po after 1 hr relative to control; type: functional
Rattus norvegicus [22] = experiment: Analgesic activity in Sprague-Dawley rat assessed as increase in mean reaction time at 20 mg/kg, po after 5 hrs relative to control; type: functional
Rattus norvegicus [23] = experiment: Analgesic activity in Sprague-Dawley rat assessed as increase in mean reaction time at 10 mg/kg, po after 5 hrs relative to control; type: functional
Rattus norvegicus [24] = experiment: Analgesic activity in Sprague-Dawley rat assessed as increase in mean reaction time at 10 mg/kg, po after 3 hrs relative to control; type: functional
Rattus norvegicus [25] = experiment: Analgesic activity in Sprague-Dawley rat hyperesthesia model normal foot assessed as mean pain reaction threshold at 20 mg/kg, po after 1 hr; type: functional
Rattus norvegicus [26] = experiment: Analgesic activity in Sprague-Dawley rat assessed as increase in mean reaction time at 20 mg/kg, po after 2 hrs relative to control; type: functional
Rattus norvegicus [27] = experiment: Analgesic activity in Sprague-Dawley rat assessed as increase in mean reaction time at 5 mg/kg, po after 1 hr relative to control; type: functional
Rattus norvegicus [28] = experiment: Analgesic activity in Sprague-Dawley rat hyperesthesia model normal foot assessed as mean pain reaction threshold at 5 mg/kg, po after 1 hr; type: functional
Rattus norvegicus [29] = experiment: Antiinflammatory activity in Sprague-Dawley rat assessed as inhibition of carrageenan-induced paw edema at 30 mg/kg, po; type: functional
Rattus norvegicus [30] = experiment: Analgesic activity in Sprague-Dawley rat normal foot assessed as response threshold at 8 to 16 mg/kg, po; type: functional; conditions: dose mg/kg 8-16
Rattus norvegicus [31] = experiment: Analgesic activity in Sprague-Dawley rat assessed as increase in mean reaction time at 5 mg/kg, po after 3 hrs relative to control; type: functional
Rattus norvegicus [32] = experiment: Analgesic activity in Sprague-Dawley rat assessed as increase in mean reaction time at 120 mg/kg, po after 2 hrs relative to control; type: functional
Rattus norvegicus [33] = experiment: Analgesic activity in Sprague-Dawley rat assessed as increase in mean reaction time at 90 mg/kg, po after 3 hrs relative to control; type: functional
Rattus norvegicus [34] = experiment: Analgesic activity in Sprague-Dawley rat assessed as increase in mean reaction time at 90 mg/kg, po after 1 hr relative to control; type: functional
Rattus norvegicus [35] = experiment: Analgesic activity in Sprague-Dawley rat assessed as increase in mean reaction time at 60 mg/kg, po after 5 hrs relative to control; type: functional
Rattus norvegicus [36] = experiment: Analgesic activity in Sprague-Dawley rat assessed as increase in mean reaction time at 30 mg/kg, po after 3 hrs relative to control; type: functional
Rattus norvegicus [37] = experiment: Analgesic activity in Sprague-Dawley rat assessed as increase in mean reaction time at 30 mg/kg, po after 5 hrs relative to control; type: functional
Rattus norvegicus [38] = experiment: Analgesic activity in Sprague-Dawley rat assessed as increase in mean reaction time at 30 mg/kg, po after 2 hrs relative to control; type: functional
Rattus norvegicus [39] = experiment: Analgesic activity in Sprague-Dawley rat assessed as increase in mean reaction time at 60 mg/kg, po after 4 hrs relative to control; type: functional
Rattus norvegicus [40] = experiment: Analgesic activity in Sprague-Dawley rat assessed as increase in mean reaction time at 120 mg/kg, po after 1 hr relative to control; type: functional
Rattus norvegicus [41] = experiment: Analgesic activity in Sprague-Dawley rat assessed as increase in mean reaction time at 120 mg/kg, po after 3 hrs relative to control; type: functional
Rattus norvegicus [42] = experiment: Analgesic activity in Sprague-Dawley rat assessed as increase in mean reaction time at 90 mg/kg, po after 5 hrs relative to control; type: functional
Rattus norvegicus [43] = experiment: Toxicity in Sprague-Dawley rat assessed as sedation at 90 mg/kg, po after 3 hrs relative to control; type: organism-based; set-up: dose 90 mg/kg, route oral; conditions: in vivo
Mus musculus [44] = experiment: Analgesic activity in naloxone treated mouse assessed as withdrawal latency at 12.5 to 75 mg/kg, po; type: functional, organism-based
Rattus norvegicus [45] = experiment: Analgesic activity in Sprague-Dawley rat assessed as increase in mean reaction time at 30 mg/kg, po after 4 hrs relative to control; type: functional
Mus musculus [46] = experiment: Analgesic activity in mouse assessed as withdrawal latency at 12.5 to 75 mg/kg, po by Haffner tail clamp method; type: functional, organism-based
Rattus norvegicus [47] = experiment: Analgesic activity in Sprague-Dawley rat assessed as increase in mean reaction time at 60 mg/kg, po after 1 hr relative to control; type: functional
Rattus norvegicus [48] = experiment: Analgesic activity in Sprague-Dawley rat assessed as increase in mean reaction time at 30 mg/kg, po after 1 hr relative to control; type: functional
Rattus norvegicus [49] = experiment: Analgesic activity in Sprague-Dawley rat assessed as increase in mean reaction time at 120 mg/kg, po after 5 hrs relative to control; type: functional
Rattus norvegicus [50] = experiment: Analgesic activity in Sprague-Dawley rat assessed as increase in mean reaction time at 60 mg/kg, po after 2 hrs relative to control; type: functional
Rattus norvegicus [51] = experiment: Toxicity in Sprague-Dawley rat assessed as sedation at 90 mg/kg, po after 2 hrs relative to control; type: organism-based; set-up: dose 90 mg/kg, route oral; conditions: in vivo
Rattus norvegicus [52] = experiment: Analgesic activity in Sprague-Dawley rat brewer's yeast treated foot assessed as response threshold at 16 to 32 mg/kg, po; type: functional; conditions: dose mg/kg 16-32
Rattus norvegicus [53] = experiment: Analgesic activity in Sprague-Dawley rat assessed as increase in mean reaction time at 90 mg/kg, po after 4 hrs relative to control; type: functional
Rattus norvegicus [54] = experiment: Toxicity in Sprague-Dawley rat assessed as sedation at 90 mg/kg, po after 4 hrs relative to control; type: organism-based; set-up: dose 90 mg/kg, route oral; conditions: in vivo
Rattus norvegicus [55] = experiment: Toxicity in Sprague-Dawley rat assessed as sedation at 90 mg/kg, po after 1 hr relative to control; type: organism-based; set-up: dose 90 mg/kg, route oral; conditions: in vivo
Rattus norvegicus [56] = experiment: Analgesic activity in Sprague-Dawley rat normal foot assessed as response threshold at 32 mg/kg, po; type: functional
Rattus norvegicus [57] = experiment: Analgesic activity in Sprague-Dawley rat assessed as increase in mean reaction time at 120 mg/kg, po after 4 hrs relative to control; type: functional
Rattus norvegicus [58] = experiment: Toxicity in Sprague-Dawley rat assessed as sedation at 90 mg/kg, po after 5 hrs relative to control; type: organism-based; set-up: dose 90 mg/kg, route oral; conditions: in vivo
Rattus norvegicus [59] = experiment: Analgesic activity in Sprague-Dawley rat assessed as increase in mean reaction time at 60 mg/kg, po after 3 hrs relative to control; type: functional
Rattus norvegicus [60] = experiment: Analgesic activity in Sprague-Dawley rat assessed as increase in mean reaction time at 90 mg/kg, po after 2 hrs relative to control; type: functional

Compound: C=CCn1c(=O)n(-c2ccc3c(c2)OCO3)c2ncccc21
- Activity (Rattus norvegicus [1]): 52.3 mmHg
- Activity (Rattus norvegicus [2]): 79.3 mmHg
- Activity (Rattus norvegicus [3]): 66.6 mmHg
- Activity (Rattus norvegicus [4]): 38.4 mmHg
- Time (Rattus norvegicus [5]): 7.1 s
- Activity (Rattus norvegicus [6]): 44.4 mmHg
- Activity (Rattus norvegicus [7]): >34 mm
- Activity (Rattus norvegicus [8]): 33.4 mmHg
- Time (Rattus norvegicus [9]): 28.1 s
- Activity (Rattus norvegicus [10]): 74.4 mmHg
- Time (Rattus norvegicus [11]): 3.9 s
- Time (Rattus norvegicus [12]): 3.8 s
- inhibition in vivo at 50 mg/kg (Rattus norvegicus [13]): 78.2%
- Time (Rattus norvegicus [14]): 24.4 s
- Activity (Rattus norvegicus [15]): 71.1 mmHg
- Time (Rattus norvegicus [16]): 7.3 s
- Activity (Rattus norvegicus [17]): 47.8 mmHg
- Time (Rattus norvegicus [18]): 0 s
- Activity (Rattus norvegicus [19]): 28.8 mmHg
- Time (Rattus norvegicus [20]): 13.5 s
- Time (Rattus norvegicus [21]): 8.8 s
- Time (Rattus norvegicus [22]): 24.5 s
- Time (Rattus norvegicus [23]): 6.2 s
- Time (Rattus norvegicus [24]): 11.6 s
- Activity (Rattus norvegicus [25]): 88.5 mmHg
- Time (Rattus norvegicus [26]): 21.7 s
- Time (Rattus norvegicus [27]): 0.1 s
- Activity (Rattus norvegicus [28]): 40.5 mmHg
- inhibition in vivo at 30 mg/kg (Rattus norvegicus [29]): 42%
- Activity (Rattus norvegicus [30]): >50 mm
- Time (Rattus norvegicus [31]): 5.3 s

Compound: CCC(=O)O[C@](Cc1ccccc1)(c1ccccc1)[C@H](C)CN(C)C [PROPOXYPHENE]
- Time (Rattus norvegicus [32]): 30 s
- Time (Rattus norvegicus [33]): 40.7 s
- Time (Rattus norvegicus [34]): 40.6 s
- Time (Rattus norvegicus [35]): -1.1 s
- Time (Rattus norvegicus [36]): -4.4 s
- Time (Rattus norvegicus [37]): 0.1 s
- Time (Rattus norvegicus [38]): -2.6 s
- Time (Rattus norvegicus [39]): -0.8 s
- Time (Rattus norvegicus [40]): 41.9 s
- Time (Rattus norvegicus [41]): 24.5 s
- inhibition in vivo at 50 mg/kg (Rattus norvegicus [13]): 56.2%
- Time (Rattus norvegicus [42]): 10.5 s
- Activity (Rattus norvegicus [43]): Toxic
- Activity (Mus musculus [44]): inactive
- Time (Rattus norvegicus [45]): -0.8 s
- Activity (Mus musculus [46]): Active
- Time (Rattus norvegicus [47]): -3 s
- Time (Rattus norvegicus [48]): -3.2 s
- Time (Rattus norvegicus [49]): 3.6 s
- Time (Rattus norvegicus [50]): -0.8 s
- Activity (Rattus norvegicus [51]): Toxic
- Activity (Rattus norvegicus [52]): >25 mm
- Time (Rattus norvegicus [53]): 36.4 s
- Activity (Rattus norvegicus [54]): Toxic
- Activity (Rattus norvegicus [55]): Toxic
- Activity (Rattus norvegicus [56]): 40 mm
- Time (Rattus norvegicus [57]): 15 s
- inhibition in vivo at 30 mg/kg (Rattus norvegicus [29]): 23%
- Activity (Rattus norvegicus [58]): Toxic
- Time (Rattus norvegicus [59]): -2.4 s
- Time (Rattus norvegicus [60]): 42 s
